This note sets out measurements from patent publication US9850281B2, “Cladosporium peptides” (Circassia Limited, priority 2012, dated 2017).

Experiment [1] relates to Peripheral blood mononuclear cells (PBMCs). As to the kind of experiment: Cytokine release assay (multiplex bead assay IL-10, IL-13, IFN-g) on PBMCs of mould allergic subjects. In kind it is cell-based, human. The settings on record: 50 mould allergic subjects; for cytokine response in the population (in words): summary of Tables 8-10; for % responders: cytokine release greater than 50 pg/ml in one or more of IL-13, IL-10 and IFN-g, polypeptide 100 μg/ml, 5 days. Here is the method: Polypeptides for use in this assay were manufactured at small scale (approximately 10 mg batch size, non-GMP). […] Polypeptides were added to wells in a volume of 100 μl containing polypeptides at a concentration of 200 μg/ml, such that subsequent addition of 100 μl of cells would create a final assay concentration of 100 μg/ml.
Peripheral blood mononuclear cells (PBMCs) were isolated from heparinised blood by Ficoll density gradient centrifugation. A 100 μl aliquot of a 5×10^6 cell/ml PBMC suspension was then added to each well and the plates placed in a humidified 5% CO2 incubator at 37° C. for 5 days. Following stimulation, culture supernatants (100 μl) were harvested for testing by multiplex bead assay.
Multiplex cytokine bead assays (IL-10, IL-13, Interferon gamma (IFN-g)) were performed on thawed culture supernatants according to the manufacturer's instructions. Single measurements were performed for each culture supernatant sample. After completion of the multiplex assay, individual cytokine levels were determined by interpolation from the standard curve generated in the assay. A positive result was taken as a cytokine release of greater than 50 pg/ml in one or more of the IL-13, IL-10 and IFN-g assays. The number of responders out of 50 mould allergic subjects tested was calculated for each polypeptide for the three cytokines.

The test system is the same in experiment [2]. The description is as above. The settings on record: 50 mould allergic subjects, polypeptide 100 μg/ml, 5 days. The class given is cell-based, human.

Where no end group is shown, it is not given here. [ ]: non-standard residue; d: D form. Nle = CCCC[C@H](N)C(=O)O

Consider AEVYQKLKALAKKTYGQ [Alt13A], for which, in experiment [1], the “cytokine response in the population (in words)” value (shortened to “cytokine response”) is given as “top performing” and the “% responders” value is on record as 86%. As for AEVYQKLKSLTKK [Cla16], in experiment [1], the “cytokine response” value is recorded as “showed responses in the population” and the “% responders” value was determined as 36%. For the same substance, the “% responders (IFN-g release greater than 100 pg/ml)” value in experiment [2] is 16%. As for ANYTQTKTVSIRL [Cla29], in experiment [1], the “cytokine response” value is on record as “showed responses in the population” and the “% responders” value was found to be 48%. The “% responders (IFN-g release greater than 100 pg/ml)” value in experiment [2] amounted to 28%. With “GGYKAAVRPT-Nle-LE (GGYKAAVRPT[Nle]LE) [Cla35A]”, in experiment [1], the “cytokine response” value was “increased response compared to the polypeptide having the sequence of Cla35” and the “% responders” value is given as 48%. In the case of GGYKAAVRPTMLE [Cla35], in experiment [1], the “cytokine response” value is on record as “showed responses in the population” and the “% responders” value is given as 34%. Also, in experiment [2], the “% responders (IFN-g release greater than 100 pg/ml)” value is on record as 28%. Regarding GHHFKERGTGSLVIT [Cla26], in experiment [1], the “cytokine response” value was “showed responses in the population” and the “% responders” value worked out at 44%. For the same substance, the “% responders (IFN-g release greater than 100 pg/ml)” value in experiment [2] was 28%.

GLHFRERKTGSLVIT [Alt21]: in experiment [1], the “% responders” value was found to be 38%.

With “GWGV-Nle-VSHRSGET (GWGV[Nle]VSHRSGET) [Alt14A]”, in experiment [1], the “cytokine response” value is listed as “top performing” and the “% responders” value was found to be 56%. For the substance GWGVMVSHRSGET [Alt14], in experiment [1], the “cytokine response” value is listed as “top performing” and the “% responders” value is reported as 44%.

Take “GYTGKIKIA-Nle-DVASSE (GYTGKIKIA[Nle]DVASSE) [Alt15A]”: in experiment [1], the “cytokine response” value was “top performing” and the “% responders” value was determined as 42%.

Take GYTGKIKIAMDVASSE [Alt15]: in experiment [1], the “cytokine response” value was “top performing” and the “% responders” value worked out at 56%.

As for “KLWHS-Nle-IP-Nle-GRDAK (KLWHS[Nle]IP[Nle]GRDAK) [Alt24A]”, the “% responders” value in experiment [1] is on record as 40%. Regarding “KLWHSMIP-Nle-GRDAK (KLWHSMIP[Nle]GRDAK) [Alt24C]”, the “% responders” value in experiment [1] was determined as 36%. Turning to KLWHSMIPMGRDAK [Alt24], the “% responders” value in experiment [1] is on record as 34%.

Regarding LAITYNSRAEGAEK [Alt20], the “% responders” value in experiment [1] is 38%. Regarding NEWRDFARVNSISP [Alt23], the “% responders” value in experiment [1] came out at 40%. Consider VAITYASRAQGAEK [Cla25A], for which, in experiment [1], the “cytokine response” value is given as “showed responses in the population” and the “% responders” value is listed as 44%. For the same substance, the “% responders (IFN-g release greater than 100 pg/ml)” value in experiment [2] is reported as 22%. With WSWKIGPAIATGNT [Alt28], in experiment [1], the “cytokine response” value was “top performing” and the “% responders” value stood at 52%.
